In ChEMBL document CHEMBL1201862, “PubChem BioAssay data set” (2004):
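Results reflect a 48-hour exposure of cells in 96-well plates to compound at five concentrations. At the GI50, growth is halved.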 Active and inactive are the calls of the source. No stated cut-off is given here; in the data, active = GI50 up to about 1.1 µM and inactive = higher.

Key:
Assay in all cases: growth of human tumour cells (NCI), 48 h
DU-145 = system: DU-145
MDA-N = system: MDA-N
EKVX = system: EKVX
OVCAR-5 = system: OVCAR-5
TK-10 = system: TK-10
MOLT-4 = system: MOLT-4
SF-268 = system: SF-268
HOP-62 = system: HOP-62
SN12C = system: SN12C
NCI-H460 = system: NCI-H460
SR = system: SR
OVCAR-4 = system: OVCAR-4
A549 = system: A549
PC-3 = system: PC-3
MDA-MB-435 = system: MDA-MB-435
HCC 2998 = system: HCC 2998
MCF7 = system: MCF7
OVCAR-3 = system: OVCAR-3
M19-MEL = system: M19-MEL
NCI-H522 = system: NCI-H522

Measured: GI50

CC(C)Cc1ccc(C(C)/C=C2\CCC(CN3CCCCC3)C2=O)cc1 (stereo not given)
inactive: DU-145 16.2 µM | MDA-N 3.7 µM | EKVX 13.6 µM | OVCAR-5 17.4 µM | TK-10 3.27 µM | MOLT-4 1.63 µM | SF-268 3.66 µM | HOP-62 8.69 µM | SN12C 2.12 µM | NCI-H460 26.7 µM | SR 1.65 µM | OVCAR-4 3.78 µM | A549 20 µM | PC-3 6.31 µM | MDA-MB-435 13.6 µM | HCC 2998 6.37 µM | MCF7 1.64 µM | OVCAR-3 4.03 µM | M19-MEL 2.54 µM | NCI-H522 1.35 µM

CCOC(=O)C1=C(OC(OCC)C(CC)[Se]c2ccccc2)CCC1 (stereo not given)
inactive: EKVX 29.2 µM | OVCAR-5 23.1 µM | TK-10 82 µM | MOLT-4 20.1 µM | SF-268 18.7 µM | HOP-62 78.5 µM | SN12C 17.1 µM | NCI-H460 39.7 µM | SR 19.3 µM | OVCAR-4 13.2 µM | A549 77.4 µM | HCC 2998 15.2 µM | OVCAR-3 23.7 µM | M19-MEL 14.4 µM | NCI-H522 15.6 µM
